Active and inactive are the calls of the source. The rule behind the calls is not given here.
Tests used:
[1] = molecular target: Toll-like receptor 1 (Homo sapiens) (UniProt Q15399); test: Agonist activity at TLR1 in HEK-Blue hTLR2 cells at 0.2 uM incubated for 24 hrs in presence of anti-hTLR1-IgG antibodies measured by Quanti-Blue based SEAP assay; format: cell-based; settings: filed as agonist
THP-1 [2] = test: Upregulation of MyD88 expression in human PMA-differentiated THP-1 cells in presence of T6167923 at 10 uM after 30 mins by western blot analysis; format: functional, cell-based
Toll-like receptor 2 = Toll-like receptor 2 (Homo sapiens, UniProt O60603); test: Agonist activity at TLR2 in HEK-Blue cells incubated for 24 hrs by Quanti-Blue based SEAP assay; format: cell-based; settings: HEK-Blue hTLR2, filed as agonist
Chain of Toll-like receptor 2 (O60603 whole entry): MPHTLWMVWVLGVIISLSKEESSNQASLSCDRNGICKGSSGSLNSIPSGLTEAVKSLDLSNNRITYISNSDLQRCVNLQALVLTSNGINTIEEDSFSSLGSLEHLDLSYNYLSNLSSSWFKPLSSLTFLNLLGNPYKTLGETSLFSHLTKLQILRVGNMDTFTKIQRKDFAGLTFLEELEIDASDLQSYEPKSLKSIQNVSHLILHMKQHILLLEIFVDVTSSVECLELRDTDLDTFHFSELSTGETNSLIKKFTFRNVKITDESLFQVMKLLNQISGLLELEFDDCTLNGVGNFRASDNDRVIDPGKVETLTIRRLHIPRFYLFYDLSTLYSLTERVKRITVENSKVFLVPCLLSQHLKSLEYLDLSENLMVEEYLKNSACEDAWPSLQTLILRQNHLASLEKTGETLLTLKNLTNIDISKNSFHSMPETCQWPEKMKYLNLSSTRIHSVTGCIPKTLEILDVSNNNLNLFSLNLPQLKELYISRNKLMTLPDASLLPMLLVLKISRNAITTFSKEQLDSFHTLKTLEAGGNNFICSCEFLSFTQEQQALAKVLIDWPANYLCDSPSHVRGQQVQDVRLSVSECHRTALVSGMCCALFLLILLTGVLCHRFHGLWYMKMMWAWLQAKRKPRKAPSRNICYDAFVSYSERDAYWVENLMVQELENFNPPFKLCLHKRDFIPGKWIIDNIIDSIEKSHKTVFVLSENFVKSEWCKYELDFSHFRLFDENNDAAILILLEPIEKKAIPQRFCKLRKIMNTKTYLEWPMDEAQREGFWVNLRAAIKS

THP-1 [3] = test: Upregulation of TLR1 expression in human THP-1 cells at 20 uM by immunoprecipitation method; format: functional, cell-based
[4] = Cytotoxicity against human PBMC upto 100 uM incubated for 24 hrs by CCK-8 assay; format: toxicity, cell-based
HCT-116 = test: Induction of apoptosis in human HCT-116 cells cocultured with PMA-differentiated THP-1 cells assessed as early apoptotic cells at 10 uM measured after 24 hrs using annexin V-FITC/PI staining based flow cytometry; format: functional
PBMC [5] = test: Induction of TNFalpha secretion in human PBMC incubated for 24 hrs by ELISA method; format: functional, cell-based; settings: dose 0.01-10 µM
CD3-positive T cell = test: Immunostimulatory activity in human CD3+ T cells at 0.1 to 10 uM incubated for 48 hrs by flow cytometry analysis; format: functional, cell-based; settings: dose 0.1-10 µM
THP-1 [6] = test: Upregulation of TLR2 expression in human THP-1 cells at 0.01 to 50 uM incubated for 24 hrs by Western blot analysis; format: functional, cell-based; settings: dose 0.01-50 µM
THP-1 [7] = test: Upregulation of TLR2 expression in human THP-1 cells at 20 uM by immunoprecipitation method; format: functional, cell-based
Macrophage [8] = test: Induction of IL-6 secretion in wild-type C57BL/6 mouse peritoneal macrophages at 0.01 to 10 uM incubated for 24 hrs by ELISA method; format: functional, cell-based; settings: dose 0.01-10 µM
B-cell line = test: Immunostimulatory activity in mouse C57 spleen B cells in assessed as fold increase at 0.1 to 10 uM incubated for 48 hrs by flow cytometry analysis; format: functional, cell-based; settings: dose 0.1-10 µM
MCF7 = test: Induction of apoptosis in human MCF7 cells cocultured with PMA-differentiated THP-1 cells assessed as early apoptotic cells at 10 uM measured after 24 hrs by annexin V-FITC/PI staining based flow cytometry (reference value: 7.87 %); format: functional
[9] = Cytotoxicity against HEK-Blue TLR2 cells incubated for 24 hrs by CCK-8 assay; format: toxicity, cell-based, HEK-Blue hTLR2; settings: human
Macrophage [10] = test: Induction of IL-6 secretion in TLR2-/- C57BL/6 mouse peritoneal macrophages at 0.01 to 10 uM incubated for 24 hrs by ELISA method; format: functional, cell-based; settings: dose 0.01-10 µM
THP-1 [11] = test: Induction of JNK phosphorylation in human PMA-differentiated THP-1 cells at 10 uM incubated for 2 hrs by Western blot analysis; format: functional, cell-based
THP-1 [12] = test: Upregulation of MyD88 expression in human PMA-differentiated THP-1 cells assessed as downregulation of IkappaBalpha at 10 uM incubated for 2 hrs by Western blot analysis; format: functional, cell-based
HEK-Blue hTLR2 = test: Upregulation of TLR2 expression in HEK-Blue TLR2 cells incubated for 24 hrs by Western blot analysis; format: functional, cell-based; settings: Homo sapiens, dose 0.01-50 µM
[13] = Cytotoxicity against HEK-Blue TLR2 cells upto 100 uM incubated for 24 hrs by CCK-8 assay; format: toxicity, cell-based; settings: human, hek-blue htlr2, 24 h
THP-1 [14] = test: Agonist activity at TLR2/MyD88 in human THP-1 cells assessed as induction of TLR2/MyD88 complex formation at 20 uM incubated for 12 hrs by coimmunoprecipitation method; format: cell-based; settings: filed as agonist
PBMC [15] = test: Induction of IL-1beta secretion in human PBMC incubated for 24 hrs by ELISA method; format: functional, cell-based; settings: dose 0.01-10 µM
[16] = Immunostimulatory activity in human CD8+ T cells assessed as fold increase at 0.1 to 10 uM incubated for 48 hrs by flow cytometry analysis; format: functional, CD8-positive T cell; settings: dose 0.1-10 µM
[17] = molecular target: Nuclear factor NF-kappa-B complex (Homo sapiens) (UniProt Q00653+P19838+Q04206); test: Activation of NF-kappaB signalling in HEK-Blue hTLR2 cells at 10 uM in presence of triptolide; format: cell-based
Chain of Nuclear factor NF-kappa-B complex (Homo sapiens) (P19838 whole entry, looked up): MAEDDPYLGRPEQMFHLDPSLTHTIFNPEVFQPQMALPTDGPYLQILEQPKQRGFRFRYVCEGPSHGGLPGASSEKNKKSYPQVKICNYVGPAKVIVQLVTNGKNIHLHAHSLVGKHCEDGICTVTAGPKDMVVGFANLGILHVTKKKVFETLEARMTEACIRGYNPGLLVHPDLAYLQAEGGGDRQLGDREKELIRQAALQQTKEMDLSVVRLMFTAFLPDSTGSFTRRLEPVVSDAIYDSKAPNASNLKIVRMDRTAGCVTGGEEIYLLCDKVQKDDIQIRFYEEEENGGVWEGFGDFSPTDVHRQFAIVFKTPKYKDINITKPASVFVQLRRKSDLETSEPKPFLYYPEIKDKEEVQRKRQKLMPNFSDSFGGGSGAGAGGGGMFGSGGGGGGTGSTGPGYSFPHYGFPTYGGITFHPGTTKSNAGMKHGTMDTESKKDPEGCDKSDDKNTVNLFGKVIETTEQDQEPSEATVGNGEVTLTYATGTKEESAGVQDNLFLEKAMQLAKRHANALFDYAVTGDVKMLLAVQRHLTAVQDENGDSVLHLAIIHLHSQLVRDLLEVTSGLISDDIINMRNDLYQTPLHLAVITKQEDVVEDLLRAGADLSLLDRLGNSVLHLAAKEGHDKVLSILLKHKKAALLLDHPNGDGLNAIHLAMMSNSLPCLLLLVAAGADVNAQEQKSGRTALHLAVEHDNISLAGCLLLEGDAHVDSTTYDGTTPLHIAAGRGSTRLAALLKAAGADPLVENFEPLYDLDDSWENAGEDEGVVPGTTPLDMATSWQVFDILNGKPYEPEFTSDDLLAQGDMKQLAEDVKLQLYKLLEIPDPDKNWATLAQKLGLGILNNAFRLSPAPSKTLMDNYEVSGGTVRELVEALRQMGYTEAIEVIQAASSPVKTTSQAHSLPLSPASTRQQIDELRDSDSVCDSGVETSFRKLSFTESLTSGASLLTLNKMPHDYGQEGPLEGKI
Chain of Nuclear factor NF-kappa-B complex (Homo sapiens) (Q00653 whole entry, looked up): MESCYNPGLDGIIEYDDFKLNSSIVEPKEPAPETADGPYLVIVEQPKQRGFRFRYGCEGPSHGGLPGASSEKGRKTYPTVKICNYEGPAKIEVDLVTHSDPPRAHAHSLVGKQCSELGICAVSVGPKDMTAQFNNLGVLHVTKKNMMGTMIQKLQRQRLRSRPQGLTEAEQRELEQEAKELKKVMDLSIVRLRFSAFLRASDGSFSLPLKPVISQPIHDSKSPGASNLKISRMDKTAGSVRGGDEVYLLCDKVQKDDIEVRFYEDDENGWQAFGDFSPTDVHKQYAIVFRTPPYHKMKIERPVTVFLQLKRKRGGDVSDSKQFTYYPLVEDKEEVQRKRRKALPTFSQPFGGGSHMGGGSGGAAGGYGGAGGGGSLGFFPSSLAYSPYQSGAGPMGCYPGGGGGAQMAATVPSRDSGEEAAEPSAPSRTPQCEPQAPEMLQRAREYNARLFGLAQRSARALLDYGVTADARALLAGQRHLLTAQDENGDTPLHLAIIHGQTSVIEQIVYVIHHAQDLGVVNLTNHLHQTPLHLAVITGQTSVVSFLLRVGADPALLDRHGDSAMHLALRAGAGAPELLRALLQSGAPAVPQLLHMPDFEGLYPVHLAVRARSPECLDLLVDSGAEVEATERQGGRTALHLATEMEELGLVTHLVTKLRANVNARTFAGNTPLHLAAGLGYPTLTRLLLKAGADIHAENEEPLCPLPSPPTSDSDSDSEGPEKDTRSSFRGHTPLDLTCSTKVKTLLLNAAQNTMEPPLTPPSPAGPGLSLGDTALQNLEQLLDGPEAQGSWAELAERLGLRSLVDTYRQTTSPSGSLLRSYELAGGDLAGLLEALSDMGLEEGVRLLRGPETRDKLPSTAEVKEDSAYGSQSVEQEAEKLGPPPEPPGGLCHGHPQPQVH
Chain of Nuclear factor NF-kappa-B complex (Homo sapiens) (Q04206 whole entry, looked up): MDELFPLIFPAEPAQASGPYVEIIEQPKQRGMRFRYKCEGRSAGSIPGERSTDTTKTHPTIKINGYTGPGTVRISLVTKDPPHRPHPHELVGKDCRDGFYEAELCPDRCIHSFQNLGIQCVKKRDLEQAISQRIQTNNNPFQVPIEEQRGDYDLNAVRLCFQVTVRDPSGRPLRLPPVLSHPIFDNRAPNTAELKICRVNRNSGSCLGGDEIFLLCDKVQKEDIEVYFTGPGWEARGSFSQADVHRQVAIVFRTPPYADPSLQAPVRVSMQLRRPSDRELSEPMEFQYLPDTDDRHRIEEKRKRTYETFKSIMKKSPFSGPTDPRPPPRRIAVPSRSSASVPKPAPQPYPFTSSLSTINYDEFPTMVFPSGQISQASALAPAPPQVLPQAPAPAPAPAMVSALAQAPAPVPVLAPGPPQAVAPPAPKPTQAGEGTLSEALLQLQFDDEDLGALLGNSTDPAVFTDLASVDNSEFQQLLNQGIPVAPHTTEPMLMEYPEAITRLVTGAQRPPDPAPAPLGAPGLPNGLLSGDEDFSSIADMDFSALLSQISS

Chain of Toll-like receptor 1 (Homo sapiens) (Q15399 whole entry): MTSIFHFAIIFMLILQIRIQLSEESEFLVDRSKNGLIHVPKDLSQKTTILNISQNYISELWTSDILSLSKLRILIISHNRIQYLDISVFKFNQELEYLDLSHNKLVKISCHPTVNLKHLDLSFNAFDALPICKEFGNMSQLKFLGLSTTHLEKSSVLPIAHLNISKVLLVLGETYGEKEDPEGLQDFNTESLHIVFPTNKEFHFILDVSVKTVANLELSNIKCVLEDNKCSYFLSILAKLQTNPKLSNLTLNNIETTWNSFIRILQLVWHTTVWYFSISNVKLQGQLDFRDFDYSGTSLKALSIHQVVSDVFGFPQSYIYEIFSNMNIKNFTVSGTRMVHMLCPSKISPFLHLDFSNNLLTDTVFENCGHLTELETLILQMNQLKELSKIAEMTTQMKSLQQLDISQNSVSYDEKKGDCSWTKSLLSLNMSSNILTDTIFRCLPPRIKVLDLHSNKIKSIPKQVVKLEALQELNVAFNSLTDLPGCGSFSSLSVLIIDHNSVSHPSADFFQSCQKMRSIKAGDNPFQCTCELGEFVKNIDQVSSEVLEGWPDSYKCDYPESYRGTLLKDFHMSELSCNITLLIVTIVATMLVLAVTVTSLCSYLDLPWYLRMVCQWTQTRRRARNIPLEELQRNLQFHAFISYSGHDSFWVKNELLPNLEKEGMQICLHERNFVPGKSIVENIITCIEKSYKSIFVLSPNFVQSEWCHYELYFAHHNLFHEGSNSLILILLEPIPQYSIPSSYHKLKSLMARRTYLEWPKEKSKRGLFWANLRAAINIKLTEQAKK

CC(C)OC(=O)c1c(NC(=S)Nc2ccc(F)c3ccccc23)sc2c1CCC2
Activity [1]: Active | Activity (THP-1 [2]): Active | Activity (Toll-like receptor 2): Dose-Dependent Effect | Activity (THP-1 [3]): Active | Activity [4]: Non-Toxic | Activity (HCT-116): 11.5% | Activity (PBMC [5]): Dose-Dependent Effect | Activity (CD3-positive T cell): Active | Activity (THP-1 [6]): Active | Activity (THP-1 [7]): Active | Activity (Macrophage [8]): inactive | Activity (B-cell line): inactive | Activity (MCF7): 16.4% | CC50 at 24 h [9]: > 100 µM | Activity (Macrophage [10]): inactive | Activity (THP-1 [11]): inactive | Activity (THP-1 [12]): Active | Activity (HEK-Blue hTLR2): Dose-Dependent Effect | Activity [13]: Non-Toxic | Activity (THP-1 [14]): Active | Activity (PBMC [15]): Dose-Dependent Effect | fold change (FC) [16]: 2 | Activity [17]: inactive

— ChEMBL document CHEMBL5038589, “Design, Synthesis, and Structure-Activity Relationship of N-Aryl-N'-(thiophen-2-yl)thiourea Derivatives as Novel and Specific Human TLR1/2 Agonists for Potential Cancer Immunotherapy” (J Med Chem, 2021)
